# Where “and” joins values, the source holds several entries; their conditions need not be identical. Equal entries are not always repeated.
# Tested on: A/Washington/29/2009 (H1N1) H275Y
# Assay type: cell-based, influenza A virus
Compound,Virus titer AVG,"Virus titer, replicates 1-3",DIF (Difference from Control)
"CC1=C(COCCC(C)(C)C)C(=O)N(Nc2ccc(C(F)(F)F)c(Cl)n2)C1=O [felezonexor, 3-[(3,3-dimethylbutoxy)methyl]-1-{[6-chloro-5-(trifluoromethyl) (2-pyridyl)]amino}-4-methylazoline-2,5-dione]",2.67 log10TCID50/mL and 3.83 log10TCID50/mL and 4.50 log10TCID50/mL,2.75 log10TCID50/mL (2×) and 3.50 log10TCID50/mL and 4.50 log10TCID50/mL (3×) and 2.50 log10TCID50/mL and 3.75 log10TCID50/mL and 4.25 log10TCID50/mL,–
"CCOC(=O)C1=C[C@@H](OC(CC)CC)[C@H](NC(C)=O)[C@@H](N)C1 [Oseltamivir, oseltamivir, reference compound]",3.92 log10TCID50/mL,3.75 log10TCID50/mL (2×) and 4.25 log10TCID50/mL,-0.92 log10TCID50/mL

# Source: patent US20230158005A1 (priority 2020, published 2023)
